Where two headings read alike, the source gives them in different places. Bridge positions count the residues as written; N and C are the ends. Square brackets hold non-standard residues; d marks the D form. Peptide text beside a SMILES is read from it. dPhe(4-Et) = CCc1ccc(C[C@@H](N)C(=O)O)cc1; dPhe(4-Me) = Cc1ccc(C[C@@H](N)C(=O)O)cc1; Phe(4-Et) = CCc1ccc(C[C@H](N)C(=O)O)cc1; Phe(4-Me) = Cc1ccc(C[C@H](N)C(=O)O)cc1; d(hArg) = N=C(N)NCCCC[C@@H](N)C(=O)O; Mpa = O=C(O)CCS
Legend:
[1] = system: rats; details: for Uterotonic activity: agonistic activity, rat
[2] = system: despinalized male rats; details: for Pressoric activity: despinalized male rats
[3] = system: rats; assay: antidiuretic activity according to Burn, dDAVP as standard; assay type: in vivo; details: rat, relative to the standard dDAVP
Description: The biological activity of the peptides was tested on rats, namely: the uterotonic activity (agonistic and antagonistic) according to the Holton's method (Holtdon, J.: Brit. J. Pharmacol., 3,328, 1960) modified by Munsick (Endocrinology, 66, 451, 1960), the inhibitory activity being expressed as pA2 (Eggen et al.: J. Gen. Physiol., 56, 250, 1970), the pressoric activity was determined on despinalized male rats according to Krejci et al. (Brit. J. Pharm. Chemother., 30, 497, 1967) and the antidiuretic activity according to Burn (Burn et al.: Biol. Stand. Oxford Univ. Press, London, 1950) with [deaminol, D-arginine^8 ]vasopressin (dDAVP) used as the standard.

[4] = system: FVIII; assay: FVIII activity in squirrel monkeys (blood coagulation); assay type: in vivo; details: for FVIII/%: squirrel monkeys, saline control = 100% (basal value)
Description: (§1) Compounds of the present invention ware evaluated for their ability to affect blood coagulation and fibrinolytic properties. The compounds were compared with [8-D-argenine]deamino vasopressin in squirrel monkeys. The findings of dissociated blood coagulation/fibrinolytic properties and the inhibitory properties are new and surprising properties for the series of vasopressin derived peptides.

[5] = system: tPA; assay: tPA activity in squirrel monkeys (fibrinolytic properties); assay type: in vivo; details: for tPA/%: squirrel monkeys, saline control = 100% (basal value)
Description: as §1

[6] = inhibitory (antagonistic) activity expressed as pA2, rat
[7] = inhibitory activity expressed as pA2, despinalized male rats

Molecule	Uterotonic activity, pA2 [1]	Antidiuretic activity [3]	Uterotonic activity, pA2 [1, 6]	FVIII/% [4]	tPA/% [5]	further results
COc1ccc(C[C@@H]2NC(=O)[C@@H](N)CSSC[C@@H](C(=O)N3CCC[C@H]3C(=O)N[C@H](CCCCNC(=N)N)C(=O)NCC(N)=O)NC(=O)[C@H](CC(N)=O)NC(=O)[C@H](CCC(N)=O)NC(=O)[C@H](Cc3ccccc3)NC2=O)cc1 [I, [2-O-methyltyrosine, 8-D-homoarginine]vasopressin]	7.7					
Cc1ccc(C[C@@H]2NC(=O)CCSSC[C@@H](C(=O)N3CCC[C@H]3C(=O)N[C@H](CCCCNC(=N)N)C(=O)NCC(N)=O)NC(=O)[C@H](CC(N)=O)NC(=O)[C@H](CCC(N)=O)NC(=O)[C@H](Cc3ccccc3)NC2=O)cc1 [IX, [Mpr^1, L-p-MePhe^2, D--Har^8] vasopressin] ([Mpa][Phe(4-Me)]FQNCP[d(hArg)]G-NH2; disulfide 1-6)	8.38					Pressoric activity, pA2 ([2]; rat, in vivo): 6.2
COc1ccc(C[C@@H]2NC(=O)CCSSC[C@@H](C(=O)N3CCC[C@H]3C(=O)N[C@H](CCCCNC(=N)N)C(=O)NCC(N)=O)NC(=O)[C@H](CC(N)=O)NC(=O)[C@H](CCC(N)=O)NC(=O)[C@H](Cc3ccccc3)NC2=O)cc1 [VI, [1-mercaptopropionic acid, 2-O-methyltyrosine 8-D-homoarginine]vasopressin]	8.1					
CCc1ccc(C[C@@H]2NC(=O)CCSSC[C@@H](C(=O)N3CCC[C@H]3C(=O)N[C@H](CCCCNC(=N)N)C(=O)NCC(N)=O)NC(=O)[C@H](CC(N)=O)NC(=O)[C@H](CCC(N)=O)NC(=O)[C@H](Cc3ccccc3)NC2=O)cc1 [VII, [Mpr^1, L-p-EtPhe^2, D--Har^8] vasopressin] ([Mpa][Phe(4-Et)]FQNCP[d(hArg)]G-NH2; disulfide 1-6)	8.0					Pressoric activity, pA2 ([2]; rat, in vivo): 6.2
CCc1ccc(C[C@H]2NC(=O)CCSSC[C@@H](C(=O)N3CCC[C@H]3C(=O)N[C@H](CCCCNC(=N)N)C(=O)NCC(N)=O)NC(=O)[C@H](CC(N)=O)NC(=O)[C@H](CCC(N)=O)NC(=O)[C@H](Cc3ccccc3)NC2=O)cc1 [VIII, [Mpr^1, D-p-EtPhe^2, D--Har^8] vasopressin] ([Mpa][dPhe(4-Et)]FQNCP[d(hArg)]G-NH2; disulfide 1-6)	8.63					Pressoric activity, pA2 ([2]; rat, in vivo): 6.35
Cc1ccc(C[C@H]2NC(=O)CCSSC[C@@H](C(=O)N3CCC[C@H]3C(=O)N[C@H](CCCCNC(=N)N)C(=O)NCC(N)=O)NC(=O)[C@H](CC(N)=O)NC(=O)[C@H](CCC(N)=O)NC(=O)[C@H](Cc3ccccc3)NC2=O)cc1 [X, [Mpr^1, D-p-MePhe^2, D--Har^8] vasopressin] ([Mpa][dPhe(4-Me)]FQNCP[d(hArg)]G-NH2; disulfide 1-6)	8.68					
[2-p-ethyl-D-phenylalanine, 8-D-homoarginine]vasopressin [III]		< 0.1 % dDAVP	8.15			Pressoric activity, pA2 [2, 7]: 6.5
[2-p-ethyl-L-phenylalanine, 8-D-homoarginine]vasopressin [II]		< 0.1 % dDAVP	7.40			Pressoric activity, pA2 [2, 7]: 6.5
[2-p-methyl-D-phenylalanine, 8-D-homoarginine]vasopressin		< 0.1 % dDAVP	6.85	55%	65%	Pressoric activity [2]: 0.04 IU/mg
[2-p-methyl-L-phenylalanine, 8-D-homoarginine]vasopressin [IV]		< 0.1 % dDAVP	6.85	85%	77%	Pressoric activity [2]: 0.04 IU/mg
[8-D-arginine] deamino vasopressin				149%	138.9%	effect on expression of Factor VIII, in words ([4]; monkey, in vivo): increase; effect on expression of tPA, in words ([5]; monkey, in vivo): increase
[D--Har^8 ] vasopressin [reference compound]		~ 1 % dDAVP				Uterotonic activity [1]: 0.9 IU/mg
[Mpr^1, D--Har^8 ] vasopressin [reference compound]		~ 5 % dDAVP		127%	88%	Uterotonic activity [1]: 0.8 IU/mg; Pressoric activity [2]: 0.28 IU/mg

Source: patent US5486596A, “Analogues of 8-D-homoarginine vasopressin” (Ceskoslovenska akademie ved, priority 1989, dated 1996)
